Legend:
Assay type in all cases: in vivo
C57BL/6 mice [1] = assay: Gross pathology and histopathology (testes degeneration, bone marrow cellularity) after whole-body irradiation; set-up: key to Supporting variable: Testes degradation (trend): positive trend (descriptively) +; negative trend (descriptively) −; no difference (descriptively) 0; details: for severity of testes degradation compared to Group 2: Day 14
Description: (§1) FIG. 13 Testes. (A): Percentage of severity of testes degeneration according to four categories (minimal, mild, moderate and marked) in group 2 (VL (POx1); 2), group 3 (ML (IPx2); 3), group 4 (ML (POx2); 4) and group 5 (ML (POx1); 5). (B): Percentage of severity of testes degeneration according to four categories (minimal, mild, moderate and marked) in group 2 (VL (POx1);2), 6 (GL (SCx1); 6) and 7 (M/GL (PO/SCx1); 7). (C): Percentage of severity of testes degeneration according to four categories (minimal, mild, moderate and marked) in group 8 (VH (POx1); 8 and 9 (MH (POx1); 9).
as §1, with “14 Bone marrow cellularity.” for “13 Testes.”, “bone marrow cellularity decrease” for “severity of testes degeneration”

C57BL/6 mice [2] = assay: as above; set-up: key to Supporting variable: Bone marrow celluarity (trend) / Supporting variable: Testes degradation (trend): positive trend (descriptively) +; negative trend (descriptively) −; no difference (descriptively) 0
C57BL/6 mice [3] = assay: Peripheral hematology after whole-body irradiation; set-up: key to Supporting variable: Hematology (trend): positive trend (descriptively) +; negative trend (descriptively) −; no difference (descriptively) 0
Description: The primary outcome of this study was mortality and secondary outcomes were changes in hematology (peripheral and bone marrow). The endpoints were chosen to follow Animal Rule requirements that state that animal study endpoint be clearly related to the clinical benefit (generally, the enhancement of survival or prevention of major morbidity). The secondary endpoints were chosen to potentially contribute to an understanding of the disease or condition and a characterization of the treatment effect.

C57BL/6 mice [4] = assay: Body weight after whole-body irradiation (response profile analysis); set-up: key to Supporting variable: Body weight (trend): positive trend (descriptively) +; negative trend (descriptively) −; no difference (descriptively) 0; details: for Body weight: % Difference from Baseline (g) (difference to vehicle group 2 at Day 0) / Body weight: % Difference from Vehicle: 5.8 Gy
Experimental: Body weights were assessed twice during acclimation (including Day −3), once prior to irradiation (Day 0), and every 3 days thereafter. Terminal body weights were also collected, with the exception of Animal 4012.
The longitudinal data were analyzed taking into account the mean weight over time in each group and the covariance among the repeated measures by response profile analysis (Fitzmaurice et al., Wiley 2004, p 103-140.). The analysis was specified as a regression model with unstructured covariance to account for the correlation among repeated body weights of the same mouse and indicator variables for treatment groups and time, where the vehicle treatment was used as the reference group and Day 0 was taken as a reference for time.
The response profile analyses provide the following regression coefficients estimated by the restricted maximum likelihood (REML) method: intercept—mean body weight in the reference groups VL (POx1);2 and VH (POx1);8 at Day 0 treatment—difference between the mean body weight in the treatment groups and the vehicle groups at Day 0 time—body weight change from baseline in the reference groups treatment×time—treatment effect at each day estimated by comparison of change from baseline in the treatment groups and control groups For all regression coefficients, p-values and 95%-confidence intervals are provided. This method provides interpretable estimates, is valid if treatment groups differ at baseline, allows for arbitrary patterns in the mean body weight over time (no specific time trend e. g. linear curve assumed) and arbitrary patterns in the covariance. The analysis has certain robustness, as potential risks due to model misspecification are minimal.

C57BL/6 mice [5] = assay: ARS scoring (posture, coat, behavior) after whole-body irradiation; set-up: key to Supporting variable: ARS scores (trend): positive trend (descriptively) +; negative trend (descriptively) −; no difference (descriptively) 0; details: for ARS posture score, most frequent grade (mode): control group 2 mild
Experimental: Scores on a scale of 1 to 4 (minimal, mild, moderate and severe) for posture, coat, and behavior were recorded twice daily per SNBL SOP, beginning on Day −3, except on the day of scheduled necropsy when scoring occurred only once. Observations were performed by 5 individuals during the course of the study.
After Day 0, the first ARS scoring began in the morning and the second ARS scoring began 4 to 6 hours following the completion of the morning ARS scoring. On the day of scheduled necropsy, ARS scoring occurred in the morning, prior to necropsy.
Based on the ARS Scoring SNBL SOP, if the sum of the three parameter scores totaled 8 or higher, the animal was considered moribund and was euthanized with an unscheduled necropsy performed according to the moribund animal SOP.

[6] = Group 3 ML (IPx2): 25 mg/kg IP, Day −3 to 0 (6x), prophylactic, 5.8 Gy
[7] = Group 4 ML (POx2): 25 mg/kg per os, Day −3 to 0 (6x), prophylactic, 5.8 Gy
[8] = Group 5 ML (POx1): 50 mg/kg per os SID Day −2, −1, 0, prophylactic, 5.8 Gy
[9] = Group 9 MH (POx1): 50 mg/kg per os SID Day 1, 2, 3, therapeutic, 6.0 Gy
[10] = Day 30, Group 9 MH (POx1): 50 mg/kg per os SID Day 1, 2, 3, therapeutic, 6.0 Gy

With `O=C(O)CCCC(=O)NCCc1c[nH]cn1` [Myelo001, 5-{[2-(1H-imidazol-4-yl)ethyl]amino}-5-oxo-pentanoic acid] the “severity of testes degradation compared to Group 2” value (“severity … compared to Group 2” below) (C57BL/6 mice [1]; [6]) was “reduced”, the “severity … compared to Group 2” value (C57BL/6 mice [1]; [7]) was “reduced” and the “severity … compared to Group 2” value (C57BL/6 mice [1]; [8]) was “reduced”. For the same compound, the “Supporting variable: Testes degradation (trend)” value (C57BL/6 mice [1]; [7]) was “+”, the “Supporting variable: Testes degradation (trend)” value (C57BL/6 mice [1]; [8]) was “+” and the “Supporting variable: Testes degradation (trend)” value (C57BL/6 mice [1]; [9]) was “+”. The “testes degeneration, proportion by severity category” value (C57BL/6 mice [2]; Day 14, n.s. (p=0.264), Group 9 MH (POx1): 50 mg/kg per os SID Day 1, 2, 3, therapeutic, 6.0 Gy) was “higher proportion of testes in minimal category”, the “decreased cellularity of the bone marrow of both sternum and femur compared to vehicle-treated control Group 8” value (C57BL/6 mice [2]; Day 14 and 30 necropsies, Group 9 MH (POx1): 50 mg/kg per os SID Day 1, 2, 3, therapeutic, 6.0 Gy) was “lower severity of decreased cellularity” and the “bone marrow cellularity decrease, category” value (C57BL/6 mice [2]; Day 30, Group 3 ML (IPx2): 25 mg/kg IP, Day −3 to 0 (6x), prophylactic, 5.8 Gy) was “minimal category”. The “Supporting variable: Bone marrow celluarity (trend)” value (C57BL/6 mice [2]; [6]) was “+”, the “Supporting variable: Testes degradation (trend)” value (C57BL/6 mice [2]; [6]) was “+” and the “decrease of bone marrow cellularity” value (C57BL/6 mice [2]; [7]) was “did not show any significant changes”. For the same compound, the “Supporting variable: Bone marrow celluarity (trend)” value (C57BL/6 mice [2]; [8]) was “−”, the “decrease of bone marrow cellularity” value (C57BL/6 mice [2]; [8]) was “did not show any significant changes” and the “Supporting variable: Bone marrow celluarity (trend)” value (C57BL/6 mice [2]; [9]) was “+”. The organ weights data (C57BL/6 mice [2]; all test article groups) was “no test article-related changes”, the “hemoglobin, red blood cells, hematocrit compared to group 8” value (C57BL/6 mice [3]; Day 14 and Day 30, Group 9 MH (POx1): 50 mg/kg per os SID Day 1, 2, 3, therapeutic, 6.0 Gy) was “in favor of group 9” and the “Supporting variable: Hematology (trend)” value (C57BL/6 mice [3]; [7]) was 0. The “Body weight: % Difference from Baseline (g) (difference to vehicle group 2 at Day 0)” value (from here on “Body weight: % Difference from Baseline”) (C57BL/6 mice [4]; Day 0, Group 3 ML (IPx2): 25 mg/kg IP, Day −3 to 0 (6x), prophylactic) was -0.8 g, the “Body weight: % Difference from Baseline” value (C57BL/6 mice [4]; Day 0, Group 4 ML (POx2): 25 mg/kg per os, Day −3 to 0 (6x), prophylactic) was -0.3 g and the “Body weight: % Difference from Baseline” value (C57BL/6 mice [4]; Day 0, Group 5 ML (POx1): 50 mg/kg per os SID Day −2, −1, 0, prophylactic) was -0.3 g. For the same compound, the “Body weight: Estimate (g), change relative to vehicle Group 8” value (C57BL/6 mice [4]; Day 0, Group 9 MH (POx1): 50 mg/kg per os SID Day 1, 2, 3, therapeutic, 6.0 Gy) was 0.0 g, the “Body weight: % Difference from Vehicle” value (C57BL/6 mice [4]; Day 3, Group 3 ML (IPx2): 25 mg/kg IP, Day −3 to 0 (6x), prophylactic) was 0.6 g and the “Body weight: % Difference from Vehicle” value (C57BL/6 mice [4]; Day 3, Group 4 ML (POx2): 25 mg/kg per os, Day −3 to 0 (6x), prophylactic) was 0.7 g. The “Body weight: % Difference from Vehicle” value (C57BL/6 mice [4]; Day 3, Group 5 ML (POx1): 50 mg/kg per os SID Day −2, −1, 0, prophylactic) was 0.4 g, the “Body weight: Estimate (g), change relative to vehicle Group 8” value (C57BL/6 mice [4]; Day 3, Group 9 MH (POx1): 50 mg/kg per os SID Day 1, 2, 3, therapeutic, 6.0 Gy) was 0.2 g and the “compensation of weight loss relative to vehicle Group 8 (amounts up to)” value (C57BL/6 mice [4]; Day 3 to 30, Group 9 MH (POx1): 50 mg/kg per os SID Day 1, 2, 3, therapeutic, 6.0 Gy) was “up to 3.1 g”. For the same compound, the “Body weight: % Difference from Vehicle” value (C57BL/6 mice [4]; Day 9, Group 3 ML (IPx2): 25 mg/kg IP, Day −3 to 0 (6x), prophylactic) was 0.5 g, the “Body weight: % Difference from Vehicle” value (C57BL/6 mice [4]; Day 9, Group 4 ML (POx2): 25 mg/kg per os, Day −3 to 0 (6x), prophylactic) was 0.6 g and the “Body weight: % Difference from Vehicle” value (C57BL/6 mice [4]; Day 9, Group 5 ML (POx1): 50 mg/kg per os SID Day −2, −1, 0, prophylactic) was 0.4 g. For the same compound, the “Body weight: Estimate (g), change relative to vehicle Group 8” value (C57BL/6 mice [4]; Day 9, Group 9 MH (POx1): 50 mg/kg per os SID Day 1, 2, 3, therapeutic, 6.0 Gy) was 0.4 g, the “Body weight: % Difference from Vehicle” value (C57BL/6 mice [4]; Day 15, Group 3 ML (IPx2): 25 mg/kg IP, Day −3 to 0 (6x), prophylactic) was 0.1 g and the “Body weight: % Difference from Vehicle” value (C57BL/6 mice [4]; Day 15, Group 4 ML (POx2): 25 mg/kg per os, Day −3 to 0 (6x), prophylactic) was -0.8 g. For the same compound, the “Body weight: % Difference from Vehicle” value (C57BL/6 mice [4]; Day 15, Group 5 ML (POx1): 50 mg/kg per os SID Day −2, −1, 0, prophylactic) was -0.4 g, the “Body weight: Estimate (g), change relative to vehicle Group 8” value (C57BL/6 mice [4]; Day 15, Group 9 MH (POx1): 50 mg/kg per os SID Day 1, 2, 3, therapeutic, 6.0 Gy) was 1.4 g and the “Body weight: % Difference from Vehicle” value (C57BL/6 mice [4]; Day 21, Group 3 ML (IPx2): 25 mg/kg IP, Day −3 to 0 (6x), prophylactic) was 1.0 g. For the same compound, the “Body weight: % Difference from Vehicle” value (C57BL/6 mice [4]; Day 21, Group 4 ML (POx2): 25 mg/kg per os, Day −3 to 0 (6x), prophylactic) was -0.7 g, the “Body weight: % Difference from Vehicle” value (C57BL/6 mice [4]; Day 21, Group 5 ML (POx1): 50 mg/kg per os SID Day −2, −1, 0, prophylactic) was -0.1 g and the “Body weight: Estimate (g), change relative to vehicle Group 8” value (C57BL/6 mice [4]; Day 21, Group 9 MH (POx1): 50 mg/kg per os SID Day 1, 2, 3, therapeutic, 6.0 Gy) was 3.1 g. The “Body weight: % Difference from Vehicle” value (C57BL/6 mice [4]; Day 30, Group 3 ML (IPx2): 25 mg/kg IP, Day −3 to 0 (6x), prophylactic) was 0.1 g, the “Body weight: % Difference from Vehicle” value (C57BL/6 mice [4]; Day 30, Group 4 ML (POx2): 25 mg/kg per os, Day −3 to 0 (6x), prophylactic) was -1.1 g and the “Body weight: % Difference from Vehicle” value (C57BL/6 mice [4]; Day 30, Group 5 ML (POx1): 50 mg/kg per os SID Day −2, −1, 0, prophylactic) was 0.1 g. For the same compound, the “Body weight: Estimate (g), change relative to vehicle Group 8” value (C57BL/6 mice [4]; [10]) was 2.6 g, the “Supporting variable: Body weight (trend)” value (C57BL/6 mice [4]; [9]) was “+” and the “frequency of normal posture score in comparison with control group” value (C57BL/6 mice [5]; Day 15, Group 3 ML (IPx2): 25 mg/kg IP, Day −3 to 0 (6x), prophylactic, 5.8 Gy) was “did not result in such changes”. The “ARS posture score, most frequent grade (mode)” value (C57BL/6 mice [5]; Day 15, Group 4 ML (POx2): 25 mg/kg per os, Day −3 to 0 (6x), prophylactic, 5.8 Gy) was “normal”, the “ARS posture score, most frequent grade (mode)” value (C57BL/6 mice [5]; Day 15, Group 5 ML (POx1): 50 mg/kg per os SID Day −2, −1, 0, prophylactic, 5.8 Gy) was “normal” and the ARS coat grade (C57BL/6 mice [5]; Day 21, Group 9 MH (POx1): 50 mg/kg per os SID Day 1, 2, 3, therapeutic, 6.0 Gy, control Group 8 mild (20%) and moderate (27%)) was “mostly normal”. The “frequency of normal posture score in comparison to control group 8” value (C57BL/6 mice [5]; [10]) was “trend for the increased frequency of normal posture score”, the “Supporting variable: ARS scores (trend)” value (C57BL/6 mice [5]; [6]) was “−” and the “Supporting variable: ARS scores (trend)” value (C57BL/6 mice [5]; [8]) was “+”. For the same compound, the “Supporting variable: ARS scores (trend)” value (C57BL/6 mice [5]; [9]) was “+”.
